Results published in ChEMBL document CHEMBL3046342, “Synthesis of steroidal thiazolidinones as antibacterial agents based on the in vitro and quantum chemistry calculation” (2013).
≈ marks a conversion by molar mass, not a printed value.

Assays:
Assay type in all cases: functional
[1] = system: Staphylococcus aureus; assay: Antibacterial activity against Staphylococcus aureus ATCC 13150 assessed as growth inhibition at 10 to 100 ug/uL after 18 hr by disk diffusion method
[2] = system: Escherichia coli; assay: Antibacterial activity against Escherichia coli ATCC 49696 assessed as growth inhibition at 10 to 100 ug/uL after 18 hr by disk diffusion method
[3] = system: Salmonella typhimurium; assay: Antibacterial activity against Salmonella enterica subsp. enterica serovar Typhimurium ATCC 13311 assessed as growth inhibition at 10 to 100 ug/uL after 18 hr by disk diffusion method
[4] = system: Streptococcus pyogenes; assay: Antibacterial activity against Streptococcus pyogenes ATCC 12384 assessed as growth inhibition at 10 to 100 ug/uL after 18 hr by disk diffusion method
[5] = system: Salmonella typhimurium; assay: Antibacterial activity against Salmonella enterica subsp. enterica serovar Typhimurium ATCC 13311 assessed as growth inhibition after 18 hr by microbroth dilution method; conditions: ATCC 13311, 18 h
[6] = system: Escherichia coli; assay: Antibacterial activity against Escherichia coli ATCC 49696 assessed as growth inhibition after 18 hr by microbroth dilution method; conditions: ATCC 49696, 18 h
[7] = system: Streptococcus pyogenes; assay: Antibacterial activity against Streptococcus pyogenes ATCC 12384 assessed as growth inhibition after 18 hr by microbroth dilution method; conditions: ATCC 12384, 18 h
[8] = system: Staphylococcus aureus; assay: Antibacterial activity against Staphylococcus aureus ATCC 13150 assessed as growth inhibition after 18 hr by microbroth dilution method; conditions: ATCC 13150, 18 h
[9] = system: Streptococcus pyogenes; assay: Antibacterial activity against Streptococcus pyogenes ATCC 12384 assessed as growth inhibition at 30 ug/disk after 18 hr by disk diffusion method; conditions: ATCC 12384, 18 h, read-out: IZ
[10] = system: Staphylococcus aureus; assay: Antibacterial activity against Staphylococcus aureus ATCC 13150 assessed as growth inhibition at 30 ug/disk after 18 hr by disk diffusion method; conditions: ATCC 13150, 18 h, read-out: IZ
[11] = system: Escherichia coli; assay: Antibacterial activity against Escherichia coli ATCC 49696 assessed as growth inhibition at 30 ug/disk after 18 hr by disk diffusion method; conditions: ATCC 49696, 18 h, read-out: IZ
[12] = system: Salmonella typhimurium; assay: Antibacterial activity against Salmonella enterica subsp. enterica serovar Typhimurium ATCC 13311 assessed as growth inhibition at 30 ug/disk after 18 hr by disk diffusion method; conditions: ATCC 13311, 18 h, read-out: IZ

| MIC [5] [µg/mL] | MIC [6] [µg/mL] | MIC [7] [µg/mL] | MIC [8] [µg/mL] | Compound | inhibition zone (IZ) [1] [mm] | inhibition zone (IZ) [2] [mm] | inhibition zone (IZ) [3] [mm] | inhibition zone (IZ) [4] [mm] | zone of inhibition at 30 µg/disc [9] [mm] | zone of inhibition at 30 µg/disc [10] [mm] | zone of inhibition at 30 µg/disc [11] [mm] | zone of inhibition at 30 µg/disc [12] [mm] |
| --- | --- | --- | --- | --- | --- | --- | --- | --- | --- | --- | --- | --- |
| – | – | – | – | CC(C)CCC[C@@H](C)[C@H]1CC[C@H]2[C@@H]3C/C(=N\NC(=S)NC4CCCCC4)C4CCCC[C@]4(C)[C@H]3CC[C@]12C (some centres undefined) | 9.6 | 11.6 | 10.6 | 9.8 | – | – | – | – |
| 32 (≈ 50 µM) | 32 (≈ 50 µM) | 64 (≈ 100 µM) | 32 (≈ 50 µM) | CC(=O)O[C@H]1CC[C@@]2(C)C(C1)/C(=N/N=C1\SCC(=O)N1C1CCCCC1)C[C@H]1[C@@H]3CC[C@H]([C@H](C)CCCC(C)C)[C@@]3(C)CC[C@@H]12 (some centres undefined) | 18.8 | 20.8 | 19.2 | 21.6 | – | – | – | – |
| 32 (≈ 51.9 µM) | 32 (≈ 51.9 µM) | 32 (≈ 51.9 µM) | 64 (≈ 104 µM) | CC(C)CCC[C@@H](C)[C@H]1CC[C@H]2[C@@H]3C/C(=N\N=C4/SCC(=O)N4C4CCCCC4)C4C[C@@H](Cl)CC[C@]4(C)[C@H]3CC[C@]12C (some centres undefined) | 20.6 | 22.8 | 19.6 | 21.7 | – | – | – | – |
| – | – | – | – | CC(=O)O[C@H]1CC[C@@]2(C)C(C1)/C(=N/NC(=S)NC1CCCCC1)C[C@H]1[C@@H]3CC[C@H]([C@H](C)CCCC(C)C)[C@@]3(C)CC[C@@H]12 (some centres undefined) | 11.6 | 13.6 | 10.6 | 12.2 | – | – | – | – |
| – | – | – | – | CC(C)CCC[C@@H](C)[C@H]1CC[C@H]2[C@@H]3C/C(=N\NC(=S)NC4CCCCC4)C4C[C@@H](Cl)CC[C@]4(C)[C@H]3CC[C@]12C (some centres undefined) | 11.2 | 11.4 | 11.5 | 10.5 | – | – | – | – |
| 512 (≈ 880 µM) | 128 (≈ 220 µM) | 128 (≈ 220 µM) | 64 (≈ 110 µM) | CC(C)CCC[C@@H](C)[C@H]1CC[C@H]2[C@@H]3C/C(=N\N=C4/SCC(=O)N4C4CCCCC4)C4CCCC[C@]4(C)[C@H]3CC[C@]12C (some centres undefined) | 13.8 | 14 | 13.2 | 14.2 | – | – | – | – |

| Compound | MIC [5] [µg/mL] | MIC [6] [µg/mL] | MIC [7] [µg/mL] | MIC [8] [µg/mL] | inhibition zone (IZ) [1] [mm] | inhibition zone (IZ) [2] [mm] | inhibition zone (IZ) [3] [mm] | inhibition zone (IZ) [4] [mm] | zone of inhibition at 30 µg/disc [9] [mm] | zone of inhibition at 30 µg/disc [10] [mm] | zone of inhibition at 30 µg/disc [11] [mm] | zone of inhibition at 30 µg/disc [12] [mm] |
| --- | --- | --- | --- | --- | --- | --- | --- | --- | --- | --- | --- | --- |
| CC1(C)S[C@@H]2[C@H](NC(=O)[C@H](N)c3ccc(O)cc3)C(=O)N2[C@H]1C(=O)O [AMOXICILLIN] | 32 (≈ 87.6 µM) | 32 (≈ 87.6 µM) | 32 (≈ 87.6 µM) | 32 (≈ 87.6 µM) | – | – | – | – | 18.2 | 17 | 20 | 17.2 |
